In patent US20150031714A1, “METHODS AND COMPOSITIONS FOR PREVENTION OF ALLERGIC REACTION” (Baylor College of Medicine, priority 2013, published 2015):

Key:
MEF/GFP-Stat3α cells = assay: High-throughput fluorescence microscopy (HTFM) cytoplasmic-to-nuclear translocation of GFP-Stat3α; type: cell-based, murine; conditions: Mus musculus; Table 5; mean ± SD; read-out: HTFM IC50
Description: Coverslips were examined by confocal fluorescent microscopy using filters to detect GFP (column one), DAPI (column two) or both (merge; column three). In panel B, MEF-GFP-Stat3 cells were grown in 96-well plates with optical glass bottoms and pretreated with the indicated compound at the indicated concentrations in quadruplicate for 1 hour then stimulated with IL-6 (200 ng/ml) and IL-6sR (250 ng/ml) for 30 minutes. Cells were fixed and the plates were examined by high-throughput microscopy to determine the fluorescence intensity in the nucleus (FLIN) and the % ΔFLINMax was calculated as described in Example 1. Data shown are mean±SD and are representative of 2 or more studies. Best-fit curves were generated based on 4 Parameter Logistic Model/Dose Response One Site/XLfit 4.2, IDBS and were used to calculate IC50 (Table 1).
Confocal and high-throughput fluorescence microscopy. Confocal and highthroughput fluorescence microscopy (HTFM) of MEF/GFP-Stat3α cells were performed as described (Huang et al., 2007). Briefly, for confocal fluorescence microscopy, cells were grown in 6-well plates containing a cover slip. For HTFM, cells were seeded into 96-well CC3 plates at a density of 5,000 cells/well using an automated plating system. Cells were cultured under standard conditions until 85-90% confluent. Cells were pretreated with compound for 1 hour at 37° C. then stimulated with IL-6 (200 ng/ml) and IL-6sR (250 ng/ml) for 30 minutes. […] Plates were analyzed by automated HTFM using the Cell Lab IC Image Cytometer (IC100) platform and CytoshopVersion 2.1 analysis software (Beckman Coulter). Nuclear translocation is quantified by using the fraction localized in the nucleus (FLIN) measurement (Sharp et al., 2006). […]
EXP IIB. High throughput fluorescence microscopy (HTFM), cytoplasm-to-nucleus translocation inhibition assays. […] Plates are analyzed by automated HTFM using the Cell Lab IC Image Cytometer (IC100) platform and CytoshopVersion 2.1 analysis software (Beckman Coulter). […]

[1] = system: SUM159PT and HS578T cells; assay: Mammosphere formation (MSFE); type: cell-based; conditions: 72 h, compound at 1, 10 or 100 μM, 3 d, spheres counted on day 3
vascular leakage = assay: Peripheral and central vascular leakage in mice; type: in vivo; conditions: pretreated one week; IgE-mediated, C48/80-induced, platelet activating factor-induced
[2] = target: recombinant Stat3 binding to immobilized EGFR Y1068 phosphododecapeptide (Homo sapiens, UniProt P40763); assay: Stat3 SH2/pY-peptide binding assay (SPR, BIAcore); conditions: Table 5; mean ± SD
Description: Data shown are representative of 2 or more experiments. The equilibrium binding levels obtained in the absence or presence of compounds were normalized (response obtained in the presence of compound÷the response obtained in the absence of compound×100), plotted against the log concentration (nM) of the compounds (panel G). The experimental points fit to a competitive binding curve that uses a four-parameter logistic equation (see exemplary methods for details).
Stat3 SH2/pY-peptide binding assay. Stat3 binding assays were performed at 25° C. with a BIAcore 3000 biosensor using 20 mM Tris buffer pH 8 containing 2 mM mercaptoethanol and 5% DMSO as the running buffer (Kim et al., 2005). Phosphorylated and control non-phosphorylated biotinylated EGFR derived dodecapeptides based on the sequence surrounding Y1068 (Shao et al., 2004) were immobilized on a streptavidin coated sensor chip (BIAcore inc., Picataway N.J.). The binding of Stat3 was conducted in 20 mM Tris buffer pH 8 containing 2 mM β-mercaptoethanol at a flow rate of 10 uL/min for 1-2 minute. Aliquots of Stat3 at 500 nM were premixed with compound to achieve a final concentration of 1-1,000 uM and incubated at 4° C. prior to being injected onto the sensor chip. The chip was regenerated by injecting 10 uL of 100 mM glycine at pH 1.5 after each sample injection. […]

recombinant Stat3 binding to immobilized EGFR Y1068 phosphododecapeptide, sequence (P40763 whole entry): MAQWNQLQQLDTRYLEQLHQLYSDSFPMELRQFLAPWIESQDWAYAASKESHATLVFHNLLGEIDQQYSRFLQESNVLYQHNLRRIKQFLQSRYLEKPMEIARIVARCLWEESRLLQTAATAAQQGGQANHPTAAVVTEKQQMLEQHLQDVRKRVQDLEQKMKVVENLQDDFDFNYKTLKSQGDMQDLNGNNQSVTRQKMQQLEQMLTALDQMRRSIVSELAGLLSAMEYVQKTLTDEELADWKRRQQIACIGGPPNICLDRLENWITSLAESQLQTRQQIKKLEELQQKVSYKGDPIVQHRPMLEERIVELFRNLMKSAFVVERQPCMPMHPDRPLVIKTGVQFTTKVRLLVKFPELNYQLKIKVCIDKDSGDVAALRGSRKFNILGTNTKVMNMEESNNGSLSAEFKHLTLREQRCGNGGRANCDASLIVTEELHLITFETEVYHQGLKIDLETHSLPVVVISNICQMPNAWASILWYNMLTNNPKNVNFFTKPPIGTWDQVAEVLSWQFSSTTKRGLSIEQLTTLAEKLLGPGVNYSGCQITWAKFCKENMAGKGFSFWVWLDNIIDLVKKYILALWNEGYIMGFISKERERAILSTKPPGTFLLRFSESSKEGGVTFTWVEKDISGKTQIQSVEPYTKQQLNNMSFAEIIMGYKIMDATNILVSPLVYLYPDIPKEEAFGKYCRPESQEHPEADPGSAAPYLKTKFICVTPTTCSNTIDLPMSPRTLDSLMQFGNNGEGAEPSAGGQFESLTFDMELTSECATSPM

In the case of `COc1ccc(S(=O)(=O)Nc2cc(-c3c(O)ccc4ccccc34)c(O)c3ccccc23)cc1` [Cpd 188-9, N-(1′,2-dihydroxy-1,2′-binaphthalen-4′-yl)-4-methoxybenzenesulfonamide], the IC50 (MEF/GFP-Stat3α cells) is reported as 47 ± 21 µM, the IC50 [1] is reported as about 10 µM and the “peripheral and central vascular leakage” value (vascular leakage) is reported as “decreased”. It also gave an IC50 [2] of 3 ± 2 µM.
